Target: recombinant human GST-SYK (Homo sapiens (Human), UniProt P43405)
Experiment: Homogeneous Time-Resolved Fluorescence (HTRF) Assay for the Recombinant Human Syk Enzyme
Format: biochemical
Details: GST-SYK 5 pM, ATP 25 μM, biotinylated substrate peptide 250 nM, HTRF signal
Experimental: Homogeneous Time-Resolved Fluorescence (HTRF) Assay for the Recombinant Human Syk Enzyme
A recombinant GST-hSYK fusion protein was used to measure potency of compounds to inhibit human Syk activity. The recombinant human GST-SYK (Carna Biosciences #08-176) (5 pM final concentration) was incubated with various concentrations of the inhibitor diluted in DMSO (0.1% final concentration) for 10 minutes at room temperature in 15 mM Tris-HCl (pH 7.5), 0.01% tween 20, 2 mM DTT in 384 well plate format. To initiate the reaction the biotinylated substrate peptide (250 nM final concentration) that contains the phosphorylation site for Syk was added with magnesium (5 mM final concentration) and ATP (25 μM final concentration). Final volume of the reaction was 10 μL. Phosphorylation of the peptide was allowed to proceed for 45′ at room temperature. To quench the reaction and detect the phosphorylated product, 2 nM of a Europium-anti-phosphotyrosine antibody (Perkin Elmer #AD0161) and 70 nM SA-APC (Perkin-Elmer #CR130-100) were added together in 15 mM Tris pH 7.5, 40 mM EDTA, 0.01% tween 20. Final volume of the quenching solution was 10 μL.
The resulting HTRF signal was measured after 30 minutes on an EnVision (Perkin-Elmer) reader using a time-resolved fluorescence protocol. Table A below lists activities as IC50 values (nM) for representative compounds of the invention.

| IC50 [nM] | SMILES |
| --- | --- |
| 48 | Cn1cc(-c2cc(Nc3nccc(C(F)(F)F)n3)cc(-c3cnc([C@@]4(O)CC[C@H](C(=O)O)C(C)(C)C4)s3)c2)cn1 (single isomer, unassigned) [Example 2.1, (1R,4S or 1S,4R)-4-Hydroxy-2,2-dimethyl-4-(5-(3-(1-methyl-1H-pyrazol-4-yl)-5-((4-(trifluoromethyl)pyrimidin-2-yl)amino)phenyl)thiazol-2-yl)cyclohexanecarboxylic acid] |
| 285 | CC1(C)C[C@](O)(c2ncc(-c3cc(Nc4nccc(C(F)(F)F)n4)cc(-c4cnn(C(C)(C)C)c4)c3)s2)CC[C@H]1C(=O)O (single isomer, unassigned) [Example 2.2, (1R,4S or 1S,4R)-4-{5-[3-(1-tert-butyl-1H-pyrazol-4-yl)-5-{[4-(trifluoromethyl)pyrimidin-2-yl]amino}phenyl]-1,3-thiazol-2-yl}-4-hydroxy-2,2-dimethylcyclohexanecarboxylic acid] |
| 149 | CC(C)n1cc(-c2cc(Nc3nccc(C(F)(F)F)n3)cc(-c3cnc([C@]4(O)CC[C@@H](C(=O)O)C(C)(C)C4)s3)c2)cn1 (single isomer, unassigned) [Example 2.3, (1R,4S or 1S,4R)-4-hydroxy-2,2-dimethyl-4-[5-(3-[1-(1-methylethyl)-1H-pyrazol-4-yl]-5-{[4-(trifluoromethyl)pyrimidin-2-yl]amino}phenyl)-1,3-thiazol-2-yl]cyclohexanecarboxylic acid] |
| 63.5 | CCn1cc(-c2cc(Nc3nccc(C(F)(F)F)n3)cc(-c3cnc([C@]4(O)CC[C@@H](C(=O)O)C(C)(C)C4)s3)c2)cn1 (single isomer, unassigned) [Example 2.4, (1R,4S or 1S,4R)-4-{5-3-(1-ethyl-1H-pyrazol-4-yl)-5-{[4-(trifluoromethyl)pyrimidin-2-yl]amino}phenyl]-1,3-thiazol-2-yl}-4-hydroxy-2,2-dimethylcyclohexanecarboxylic acid] |
| 1.56 | CC1(C)C[C@](O)(c2ncc(-c3cc(Nc4nccc(C(F)(F)F)n4)cc(-c4ccncc4)c3)s2)CC[C@H]1C(=O)O (single isomer, unassigned) [Example 2.5, (1R,4S or 1S,4R)-4-hydroxy-2,2-dimethyl-4-[5-(3-pyridin-4-yl-5-{[4-(trifluoromethyl)pyrimidin-2-yl]amino}phenyl)-1,3-thiazol-2-yl]cyclohexanecarboxylic acid] |
| 3.68 | COc1ccc(-c2cc(Nc3nccc(C(F)(F)F)n3)cc(-c3cnc([C@]4(O)CC[C@@H](C(=O)O)C(C)(C)C4)s3)c2)cn1 (single isomer, unassigned) [Example 2.7, (1R,4S or 1S,4R)-4-hydroxy-4-{5-[3-(6-methoxypyridin-3-yl)-5-{[4-(trifluoromethyl)pyrimidin-2-yl]amino}phenyl]-1,3-thiazol-2-yl}-2,2-dimethylcyclohexanecarboxylic acid] |
| 11.7 | CC1(C)C[C@](O)(c2ncc(-c3cc(Nc4nccc(C(F)(F)F)n4)cc(-c4ccsc4)c3)s2)CC[C@H]1C(=O)O (single isomer, unassigned) [Example 2.8, (1R,4S or 1S,4R)-4-hydroxy-2,2-dimethyl-4-[5-(3-thiophen-3-yl-5-{[4-(trifluoromethyl)pyrimidin-2-yl]amino}phenyl)-1,3-thiazol-2-yl]cyclohexanecarboxylic acid] |
| 2.38 | CC1(C)C[C@](O)(c2ncc(-c3cc(Nc4nccc(C(F)(F)F)n4)cc(-c4cn[nH]c4)c3)s2)CC[C@H]1C(=O)O (single isomer, unassigned) [Example 2.10, (1R,4S or 1S,4R)-4-hydroxy-2,2-dimethyl-4-{5-[3-(1H-pyrazol-4-yl)-5-{[4-(trifluoromethyl)pyrimidin-2-yl]amino}phenyl]-1,3-thiazol-2-yl}cyclohexanecarboxylic acid] |
| 1.11 | CC1(C)C[C@](O)(c2ncc(-c3cc(Nc4nccc(C(F)(F)F)n4)cc(-c4cc[nH]n4)c3)s2)CC[C@H]1C(=O)O (single isomer, unassigned) [Example 2.11, (1R,4S or 1S,4R)-4-hydroxy-2,2-dimethyl-4-{5-[3-(1H-pyrazol-3-yl)-5-{[4-(trifluoromethyl)pyrimidin-2-yl]amino}phenyl]-1,3-thiazol-2-yl}cyclohexanecarboxylic acid] |
| 3.22 | CC1(C)C[C@](O)(c2ncc(-c3cc(Nc4nccc(C(F)(F)F)n4)cc(-c4cncc(F)c4)c3)s2)CC[C@H]1C(=O)O (single isomer, unassigned) [Example 2.15, (1R,4S or 1S,4R)-4-{5-[3-(5-fluoropyridin-3-yl)-5-{[4-(trifluoromethyl)pyrimidin-2-yl]amino}phenyl]-1,3-thiazol-2-yl}-4-hydroxy-2,2-dimethylcyclohexanecarboxylic acid] |

Further lines, the molecule ahead of its results:

| SMILES | IC50 [nM] |
| --- | --- |
| CCOC(=O)[C@H]1CC[C@](O)(c2ncc(-c3cc(Nc4nccc(C(F)(F)F)n4)cc(-c4cn[nH]c4)c3)s2)C[C@H]1C (racemic) [Example 1.1, Ethyl rel-(1S,2R,4R or S)-4-(5-(3-(1H-pyrazol-4-yl)-5-((4-(trifluoromethyl)pyrimidin-2-yl)amino)phenyl)thiazol-2-yl)-4-hydroxy-2-methylcyclohexanecarboxylate] | 162 |
| C[C@@H]1C[C@@](O)(c2ncc(-c3cc(Nc4nccc(C(F)(F)F)n4)cc(-c4cn[nH]c4)c3)s2)CC[C@@H]1C(=O)O (racemic) [Example 1.2, rel-(1S,2R,4R or S)-4-(5-(3-(1H-pyrazol-4-yl)-5-((4-(trifluoromethyl)pyrimidin-2-yl)amino)phenyl)thiazol-2-yl)-4-hydroxy-2-methylcyclohexanecarboxylic acid] | 0.959 |
| C[C@@H]1C[C@@](O)(c2ncc(-c3cc(Nc4nccc(C(F)(F)F)n4)cc(-c4cn[nH]c4)c3)s2)CC[C@@H]1C(N)=O (racemic) [Example 1.3, rel-(1S,2R,4R or S)-4-(5-(3-(1H-pyrazol-4-yl)-5-((4-(trifluoromethyl)pyrimidin-2-yl)amino)phenyl)thiazol-2-yl)-4-hydroxy-2-methylcyclohexanecarboxamide] | 2.95 |
| COc1cc(Nc2nccc(C(F)(F)F)n2)cc(-c2cnc([C@@]3(O)CC[C@H](C(=O)O)C(C)(C)C3)s2)c1 (single isomer, unassigned) [Example 1.5, (1R,4S or 1S,4R) 4-Hydroxy-4-(5-(3-methoxy-5-((4-(trifluoromethyl)pyrimidin-2-yl)amino)phenyl)thiazol-2-yl)-2,2-dimethylcyclohexanecarboxylic acid] | 1.4 |
| CC1(C)CC(O)(c2ncc(-c3cc(C#N)cc(Nc4nccc(C(F)(F)F)n4)c3)s2)CCC1C(=O)O (single isomer, unassigned) [Example 1.8, (1R,4S or 1S,4R)-4-[5-(3-cyano-5-{[4-(trifluoromethyl)pyrimidin-2-yl]amino}phenyl)-1,3-thiazol-2-yl]-4-hydroxy-2,2-dimethylcyclohexanecarboxylic acid] | 5.77 |
| CC1(C)CC(O)(c2ncc(-c3cc(Nc4nccc(C(F)(F)F)n4)cc(S(C)(=O)=O)c3)s2)CCC1C(=O)O (single isomer, unassigned) [Example 1.9, (1R,4S or 1S,4R)-4-hydroxy-2,2-dimethyl-4-{5-[3-(methylsulfonyl)-5-{[4-(trifluoromethyl)pyrimidin-2-yl]amino}phenyl]-1,3-thiazol-2-yl}cyclohexanecarboxylic acid] | 5.1 |
| CC1(C)C[C@](O)(c2ncc(-c3cc(Nc4nccc(C(F)(F)F)n4)cc(-c4ccc(F)cc4)c3)s2)CC[C@H]1C(=O)O (single isomer, unassigned) [Example 2.6, (1R,4S or 1S,4R)-4-[5-(4′-fluoro-5-{[4-(trifluoromethyl)pyrimidin-2-yl]amino}biphenyl-3-yl)-1,3-thiazol-2-yl]-4-hydroxy-2,2-dimethylcyclohexanecarboxylic acid] | 20.7 |
| CC1(C)C[C@](O)(c2ncc(-c3cc(Nc4nccc(C(F)(F)F)n4)cc(-c4cccc(C(=O)NC5CC5)c4)c3)s2)CC[C@H]1C(=O)O (single isomer, unassigned) [Example 2.9, (1R,4S or 1S,4R)-4-{5-[3′-(cyclopropylcarbamoyl)-5-{[4-(trifluoromethyl)pyrimidin-2-yl]amino}biphenyl-3-yl]-1,3-thiazol-2-yl}-4-hydroxy-2,2-dimethylcyclohexanecarboxylic acid] | 2.78 |
| COc1ccc(-c2cc(Nc3nccc(C(F)(F)F)n3)cc(-c3cnc([C@]4(O)CC[C@@H](C(=O)O)C(C)(C)C4)s3)c2)cc1F (single isomer, unassigned) [Example 2.12, (1R,4S or 1S,4R)-4-[5-(3′-fluoro-4′-methoxy-5-{[4-(trifluoromethyl)pyrimidin-2-yl]amino}biphenyl-3-yl)-1,3-thiazol-2-yl]-4-hydroxy-2,2-dimethylcyclohexanecarboxylic acid] | 35.3 |
| CC1(C)C[C@](O)(c2ncc(-c3cc(Nc4nccc(C(F)(F)F)n4)cc(-c4cccc(F)c4F)c3)s2)CC[C@H]1C(=O)O (single isomer, unassigned) [Example 2.14, (1R,4S or 1S,4R)-4-[5-(2′,3′-difluoro-5-{[4-(trifluoromethyl)pyrimidin-2-yl]amino}biphenyl-3-yl)-1,3-thiazol-2-yl]-4-hydroxy-2,2-dimethylcyclohexanecarboxylic acid] | 12.9 |
